Tested on: CDK8 (phosphorylation of STAT1 at serine 727 in A549 cells)
Test: Cell based Phospho-STAT1 assay (IFNγ-stimulated A549 cells, AlphaLISA)
Settings: Homo sapiens, A549, A549 cells, phospho-STAT1 after IFNγ stimulation
Method: Determine Inhibitor Activity Against CDK8 in Cell Based Phospho-STAT1 Assay
This assay measures the phosphorylation of the CDK8 substrate STAT1 following Interferon-gamma (IFNγ) stimulation^1. The lung carcinoma cell line A549 is seeded in a 96 well plate in 50 μL of culture media at 5×10^4 cells/well and incubated at 37° C. overnight. Serial dilutions of compounds (in total volume of 50 μL culture media) are added to the cells and incubated at 37° C. for one hour. Human IFNγ (R&D Systems) is added to the cells at a 10 ng/mL final concentration. 4 wells containing DMSO treated cells stimulated with IFNγ serve as high controls and 4 wells containing DMSO treated unstimulated cells serve as low controls. After 30 minute IFNγ stimulation at 37° C., the culture media is removed and 50 μL of 1×AlphaLISA lysis buffer (PerkinElmer GA, USA) is added to each well. 5 μL cell lysate is transferred to a 384 well AlphaPlate (PerkinElmer GA, USA) and 5 μL containing 0.156 nM Phospho-STAT1 (Ser727) rabbit monoclonal antibody (Cell Signaling Technology), 0.156 nM Mouse Anti-STAT1 antibody (BD Transduction Laboratories), and 10 μg/mL Anti-rabbit IgG AlphaLISA acceptor beads (PerkinElmer GA, USA) diluted in 1× AlphaLISA immunoassay buffer (PerkinElmer GA, USA) is added to the cell lysates and incubated at room temperature for 90 minutes. 5 μL Anti-Mouse IgG Alpha donor beads diluted in 1× AlphaLISA immunoassay buffer (PerkinElmer GA, USA) is added to the reaction mixture and incubated at room temperature for 90 minutes. Upon excitation of these beads with laser light at 680 nm, singlet oxygen is produced. This singlet oxygen is rapidly quenched, unless the AlphaLISA Anti-Rabbit IgG acceptor beads are in close proximity, in which case a proximity signal can be measured at […]. In the presence of cellular CDK8 catalytic activity, there is a very strong proximity signal. Selective CDK8 inhibitors affect a decrease in this proximity signal through a decrease in phosphorylation of STAT1 at serine 727. The percentage inhibition at individual concentrations relative to high and low controls is calculated. The data are analyzed by using nonlinear regression to generate IC50 values.

| SMILES | IC50 [nM] |
| --- | --- |
| CC(=O)N1CC=C(c2cccc3ncc(-c4ccc(-c5cnn(C)c5)cc4)n23)CC1 [Compound P-0436, 1-(4-(3-(4-(1-methyl-1H-pyrazol-4-yl)phenyl)imidazo[1,2-a]pyridin-5-yl)-3,6-dihydropyridin-1(2H)-yl)ethan-1-one] | 1000 to 10000 |
| Cn1cc(-c2ccc(-c3cnc4cccc(N5CCC(CO)CC5)n34)cc2)cn1 [Compound P-0434, [1-[3-[4-(1-methylpyrazol-4-yl)phenyl]imidazo[1,2-a]pyridin-5-yl]-4-piperidyl]methanol] | 1000 to 10000 |
| CC(C)(O)C#Cc1cccn2ncc(-c3ccc(S(=O)(=O)N4CCCCC4)cc3)c12 [Compound P-0413, 2-methyl-4-(3-(4-(piperidin-1-ylsulfonyl)phenyl)pyrazolo[1,5-a]pyridin-4-yl)but-3-yn-2-ol] | 1000 to 10000 |
| Cn1cc(-c2ccc(-c3cnc4cccc(N5CCC(C)(C#N)CC5)n34)cc2)cn1 [Compound P-0401, 4-methyl-1-(3-(4-(1-methyl-1H-pyrazol-4-yl)phenyl)imidazo[1,2-a]pyridin-5-yl)piperidine-4-carbonitrile] | 0.1 to 100 |
| Cn1cc(-c2ccc(-c3cnc4cccc(N5CCNCC5)n34)cc2)cn1 [Compound P-0393, 3-(4-(1-methyl-1H-pyrazol-4-yl)phenyl)-5-(piperazin-1-yl)imidazo[1,2-a]pyridine] | 1000 to 10000 |
| CC(C)(C)OC(=O)N1CCC(Oc2cccc3ncc(-c4ccc(-c5cnn(C(F)F)c5)cc4)n23)CC1 [Compound P-0306, tert-butyl 4-((3-(4-(1-(difluoromethyl)-1H-pyrazol-4-yl)phenyl)imidazo[1,2-a]pyridin-5-yl)oxy)piperidine-1-carboxylate] | 1000 to 10000 |
| COC(=O)C1(C)CCN(c2cccc3ncc(-c4ccc(-c5cnn(C)c5)cc4)n23)CC1 [Compound P-0399, methyl 4-methyl-1-(3-(4-(1-methyl-1H-pyrazol-4-yl)phenyl)imidazo[1,2-a]pyridin-5-yl)piperidine-4-carboxylate] | 1000 to 10000 |
| Cc1noc(C)c1-c1ccc(-c2cnn3cccc(C#CC(C)(C)O)c23)cc1 [Compound P-0227, 4-(3-(4-(3,5-dimethylisoxazol-4-yl)phenyl)pyrazolo[1,5-a]pyridin-4-yl)-2-methylbut-3-yn-2-ol] | 1000 to 10000 |
| CC(C)(C#N)COc1cccc2ncc(-c3ccc(-c4cnn(C(F)F)c4)cc3)n12 [Compound P-0355, 3-((3-(4-(1-(difluoromethyl)-1H-pyrazol-4-yl)phenyl)imidazo[1,2-a]pyridin-5-yl)oxy)-2,2-dimethylpropanenitrile] | 100 to 1000 |
| Cn1cc(C#Cc2cnc3cccc(N4CCC(CC(N)=O)CC4)n23)cn1 [Compound P-0294, 2-(1-(3-((1-methyl-1H-pyrazol-4-yl)ethynyl)imidazo[1,2-a]pyridin-5-yl)piperidin-4-yl)acetamide] | 1000 to 10000 |
| Cn1cc(-c2ccc(-c3cnn4cccc(C#CC5(O)COC5)c34)cc2)cn1 [Compound P-0368, 3-((3-(4-(1-methyl-1H-pyrazol-4-yl)phenyl)pyrazolo[1,5-a]pyridin-4-yl)ethynyl)oxetan-3-ol] | 0.1 to 100 |
| N#CC1CCC(c2cccn3ncc(-c4ccc(-c5cnn(C(F)F)c5)cc4)c23)CC1 (stereo not shown) [Compound P-0346, 4-(3-(4-(1-(difluoromethyl)-1H-pyrazol-4-yl)phenyl)pyrazolo[1,5-a]pyridin-4-yl)cyclohexane-1-carbonitrile] | 100 to 1000 |
| Cn1cc(C#Cc2cnc3cccc(N4CCC5(CC4)COC5)n23)cn1 [Compound P-0354, 7-(3-((1-methyl-1H-pyrazol-4-yl)ethynyl)imidazo[1,2-a]pyridin-5-yl)-2-oxa-7-azaspiro[3.5]nonane] | 1000 to 10000 |
| Cn1cc(-c2ccc(-c3cnc4cccc(N5CCN(c6ccccn6)CC5)n34)cc2)cn1 [Compound P-0385, 3-(4-(1-methyl-1H-pyrazol-4-yl)phenyl)-5-(4-(pyridin-2-yl)piperazin-1-yl)imidazo[1,2-a]pyridine] | 1000 to 10000 |
| Cn1cc(-c2ccc(-c3cnc4cccc(N5CCC(C(N)=O)C5)n34)cc2)cn1 (stereo not shown) [Compound P-0378, 1-(3-(4-(1-methyl-1H-pyrazol-4-yl)phenyl)imidazo[1,2-a]pyridin-5-yl)pyrrolidine-3-carboxamide] | 100 to 1000 |
| Cn1cc(-c2ccc(-c3cnc4cccc(N5CCCCC5)n34)cc2)cn1 [Compound P-0381, 3-(4-(1-methyl-1H-pyrazol-4-yl)phenyl)-5-(piperidin-1-yl)imidazo[1,2-a]pyridine] | 1000 to 10000 |
| Cn1cc(C#Cc2cccn3ncc(-c4ccc(-c5cnn(C)c5)cc4)c23)cn1 [Compound P-0428, 4-((1-methyl-1H-pyrazol-4-yl)ethynyl)-3-(4-(1-methyl-1H-pyrazol-4-yl)phenyl)pyrazolo[1,5-a]pyridine] | 100 to 1000 |
| CN1CCN(c2cccc3ncc(-c4ccc(-c5cnn(C)c5)cc4)n23)CC1 [Compound P-0394, 3-(4-(1-methyl-1H-pyrazol-4-yl)phenyl)-5-(4-methylpiperazin-1-yl)imidazo[1,2-a]pyridine] | 100 to 1000 |
| Cn1cc(-c2ccc(C3=C4C(C5CCC(C#N)CC5)=CC=CN4NC3)cc2)cn1 (stereo not shown) [Compound P-0302, 4-(3-(4-(1-methyl-1H-pyrazol-4-yl)phenyl)-1,2-dihydropyrazolo[1,5-a]pyridin-4-yl)cyclohexane-1-carbonitrile] | 1000 to 10000 |
| Cn1ncc2cc(-c3cnn4cccc(C#CC(C)(C)O)c34)ccc21 [Compound P-0414, 2-methyl-4-(3-(1-methyl-1H-indazol-5-yl)pyrazolo(1,5-a]pyridin-4-yl)but-3-yn-2-ol] | 0.1 to 100 |
| O=C1Nc2ccccc2C12CCN(c1cccc3ncc(-c4ccc(-c5cnn(C(F)F)c5)cc4)n13)CC2 [Compound P-0441, 1′-(3-(4-(1-(difluoromethyl)-1H-pyrazol-4-yl)phenyl)imidazo[1,2-a]pyridin-5-yl)spiro[indoline-3,4′-piperidin]-2-one] | 0.1 to 100 |
| Cn1cc(-c2ccc(-c3cnc4cccc(NCCCO)n34)cc2)cn1 [Compound P-0390, 3-((3-(4-(1-methyl-1H-pyrazol-4-yl)phenyl)imidazo[1,2-a]pyridin-5-yl)amino)propan-1-ol] | 100 to 1000 |

The remaining lines, values ahead:

| IC50 [nM] | SMILES |
| --- | --- |
| 100 to 1000 | Cn1ncc2cc(-c3cnc4[nH]ccc4c3C#CC(C)(C)O)ccc21 [Compound P-0343, 2-methyl-4-(5-(1-methyl-1H-indazol-5-yl)-1H-pyrrolo[2,3-b]pyridin-4-yl)but-3-yn-2-ol] |
| 100 to 1000 | N#CC1CCN(c2c(-c3ccc4c(c3)OC(F)(F)O4)cnc3[nH]ccc23)CC1 [Compound P-0334, 1-(5-(2,2-difluorobenzo[d][1,3]dioxol-5-yl)-1H-pyrrolo[2,3-b]pyridin-4-yl)piperidine-4-carbonitrile] |
| 100 to 1000 | Cn1cc(-c2ccc(-c3cnc4cccc(N5CCC(O)CC5)n34)cc2)cn1 [Compound P-0397, 1-(3-(4-(1-methyl-1H-pyrazol-4-yl)phenyl)imidazo[1,2-a]pyridin-5-yl)piperidin-4-ol] |
| 1000 to 10000 | Cn1cc(-c2ccc(-c3c[nH]c4ncc(Br)c(N5CCC(C#N)CC5)c34)cc2)cn1 [Compound P-0432, 1-[5-bromo-3-[4-(1-methylpyrazol-4-yl)phenyl]-H-pyrrolo[2,3-b]pyridin-4-yl]piperidine-4-carbonitrile] |
| 0.1 to 100 | Cn1cc(-c2ccc(-c3cnc4[nH]cc(Cl)c4c3N3CCC(C#N)CC3)cc2)cn1 [Compound P-0360, 1-(3-chloro-5-(4-(1-methyl-1H-pyrazol-4-yl)phenyl)-1H-pyrrolo[2,3-b]pyridin-4-yl)piperidine-4-carbonitrile] |
| 100 to 1000 | Cn1cc(C#Cc2cnc3cccc(N4CCC(C#N)CC4)n23)cn1 [Compound P-0409, 1-(3-((1-methyl-1H-pyrazol-4-yl)ethynyl)imidazo[1,2-a]pyridin-5-yl)piperidine-4-carbonitrile] |
| 0.1 to 100 | Cn1ncc2cc(-c3cnc4[nH]ccc4c3N3CCC(C#N)CC3)ccc21 [Compound P-0357, 1-[5-(1-methylindazol-5-yl)-1H-pyrrolo[2,3-b]pyridin-4-yl]piperidine-4-carbonitrile] |
| 0.1 to 100 | Cn1ncc2cc(-c3cnc4cccc(N5CCC(C#N)CC5)n34)ccc21 [Compound P-0361, 1-(3-(1-methyl-1H-indazol-5-yl)imidazo[1,2-a]pyridin-5-yl)piperidine-4-carbonitrile] |
| 1000 to 10000 | N#CC1CCN(c2cccn3ncc(-c4ccc(-c5nc(C(F)(F)F)no5)cc4)c23)CC1 [Compound P-0424, 1-(3-(4-(3-(trifluoromethyl)-1,2,4-oxadiazol-5-yl)phenyl)pyrazolo[1,5-a]pyridin-4-yl)piperidine-4-carbonitrile] |

— patent US10703757B2, “Compounds and methods for CDK8 modulation and indications therefor” (Plexxikon Inc., priority 2016, dated 2020)
